Results from BigSolDB 2.1.

Conditions: in water

N#CN=C(N)N
Conditions	solubility (mole fraction)
278.15 K	0.00303
283.15 K	0.00387
288.15 K	0.00526
293.15 K	0.00707
298.15 K	0.00891
303.15 K	0.0114
308.15 K	0.0141
313.15 K	0.0172
318.15 K	0.021
323.15 K	0.0265
